Measurements from ChEMBL document CHEMBL3872266, “Synthesis and characterization of novel, conjugated, fluorescent DNJ derivatives for α-glucosidase recognition” (Bioorg Med Chem, 2017).

Experiments:
[1] = Inhibition of almond beta-glucosidase assessed as reduction in production of D-glucose using disaccharides as substrate incubated for 10 to 30 mins; parameters: species or system Prunus dulcis
[2] = target: T1, Sucrase-isomaltase, intestinal (Rattus norvegicus, UniProt P23739); experiment: Inhibition of rat small intestinal brush border membrane sucrase assessed as reduction in production of D-glucose using disaccharides as substrate incubated for 10 to 30 mins
[3] = Inhibition of rat small intestinal brush border membrane cellobiase assessed as reduction in production of D-glucose using disaccharides as substrate incubated for 10 to 30 mins
[4] = Inhibition of rice alpha-glucosidase assessed as reduction in production of D-glucose using disaccharides as substrate incubated for 10 to 30 mins; parameters: species or system Oryza sativa
[5] = target: T1, Sucrase-isomaltase, intestinal; experiment: Inhibition of rat small intestinal brush border membrane isomaltase assessed as reduction in production of D-glucose using disaccharides as substrate incubated for 10 to 30 mins
[6] = Inhibition of rat small intestinal brush border membrane maltase assessed as reduction in production of D-glucose using maltose as substrate incubated for 10 to 30 mins

T1 sequence (P23739 1-1013 limits assumed): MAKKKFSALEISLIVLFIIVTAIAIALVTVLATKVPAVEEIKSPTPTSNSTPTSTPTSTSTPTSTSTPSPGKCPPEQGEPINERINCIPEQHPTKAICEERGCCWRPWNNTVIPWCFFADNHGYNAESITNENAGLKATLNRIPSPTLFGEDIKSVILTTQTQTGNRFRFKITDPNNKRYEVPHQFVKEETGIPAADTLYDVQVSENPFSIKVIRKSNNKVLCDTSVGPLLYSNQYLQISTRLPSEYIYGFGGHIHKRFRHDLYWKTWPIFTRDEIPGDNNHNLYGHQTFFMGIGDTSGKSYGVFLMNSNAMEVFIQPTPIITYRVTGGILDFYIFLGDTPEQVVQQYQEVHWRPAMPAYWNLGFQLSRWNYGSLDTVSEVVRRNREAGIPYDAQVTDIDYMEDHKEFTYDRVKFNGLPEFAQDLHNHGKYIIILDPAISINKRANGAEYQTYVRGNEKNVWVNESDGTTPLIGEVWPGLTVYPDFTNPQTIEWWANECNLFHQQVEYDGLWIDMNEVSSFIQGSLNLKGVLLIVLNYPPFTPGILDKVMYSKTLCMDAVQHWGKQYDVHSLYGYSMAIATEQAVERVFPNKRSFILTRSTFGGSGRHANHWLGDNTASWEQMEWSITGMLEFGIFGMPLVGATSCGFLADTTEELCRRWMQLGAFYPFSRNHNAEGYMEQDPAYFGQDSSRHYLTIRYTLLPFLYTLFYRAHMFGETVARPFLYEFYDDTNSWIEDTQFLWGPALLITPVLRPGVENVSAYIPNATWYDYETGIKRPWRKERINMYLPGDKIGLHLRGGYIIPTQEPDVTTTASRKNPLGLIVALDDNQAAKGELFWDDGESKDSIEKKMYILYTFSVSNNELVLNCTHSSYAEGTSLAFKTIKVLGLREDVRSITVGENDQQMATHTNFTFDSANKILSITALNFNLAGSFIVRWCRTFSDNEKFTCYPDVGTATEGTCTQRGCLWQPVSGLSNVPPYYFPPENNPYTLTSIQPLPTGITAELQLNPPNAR
T1 sequence (P23739 1014-1841 limits assumed): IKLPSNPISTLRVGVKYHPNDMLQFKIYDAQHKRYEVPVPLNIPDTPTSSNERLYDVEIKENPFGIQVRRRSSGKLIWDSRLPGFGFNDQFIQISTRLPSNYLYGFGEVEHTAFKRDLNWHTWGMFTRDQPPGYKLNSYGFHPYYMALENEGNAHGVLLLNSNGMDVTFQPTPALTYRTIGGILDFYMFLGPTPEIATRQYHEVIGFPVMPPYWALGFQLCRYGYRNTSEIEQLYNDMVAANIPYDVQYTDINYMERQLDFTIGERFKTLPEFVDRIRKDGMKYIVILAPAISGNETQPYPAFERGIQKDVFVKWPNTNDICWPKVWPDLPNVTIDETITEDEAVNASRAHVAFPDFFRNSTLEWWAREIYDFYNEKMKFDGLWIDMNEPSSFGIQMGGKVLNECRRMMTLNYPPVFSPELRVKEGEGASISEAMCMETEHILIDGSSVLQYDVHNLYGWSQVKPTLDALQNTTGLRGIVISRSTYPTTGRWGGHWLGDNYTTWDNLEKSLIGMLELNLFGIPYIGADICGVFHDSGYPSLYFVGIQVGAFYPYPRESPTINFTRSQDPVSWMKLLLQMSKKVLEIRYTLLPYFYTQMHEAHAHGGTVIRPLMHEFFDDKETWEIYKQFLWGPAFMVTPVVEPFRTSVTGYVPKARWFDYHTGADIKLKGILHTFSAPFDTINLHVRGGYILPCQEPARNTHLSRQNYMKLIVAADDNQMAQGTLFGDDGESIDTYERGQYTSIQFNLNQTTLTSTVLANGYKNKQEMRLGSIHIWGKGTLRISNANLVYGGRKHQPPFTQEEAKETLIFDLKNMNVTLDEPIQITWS

Compound | IC50 [1] | IC50 [2] | IC50 [3] | IC50 [4] | IC50 [5] | IC50 [6]
O=c1cc(C(F)(F)F)c2ccc(OCCCCn3cc(CCCCN4C[C@H](O)[C@@H](O)[C@H](O)[C@H]4CO)nn3)cc2o1 | 3.8 µM | 0.95 µM | 219 µM | 0.057 µM | 4.1 µM | 0.54 µM
O=c1ccc2nc3ccc(OCCCCn4cc(CCCCN5C[C@H](O)[C@@H](O)[C@H](O)[C@H]5CO)nn4)cc3oc-2c1 |  | 2.7 µM | 175 µM | 2.1 µM | 6.3 µM | 0.65 µM
CCN(CC)c1ccc2cc(C(=O)NCCOCCOCCOCCn3cc(CCCCN4C[C@H](O)[C@@H](O)[C@H](O)[C@H]4CO)nn3)c(=O)oc2c1 |  | 1.4 µM | 304 µM | 0.11 µM | 13.6 µM | 0.1 µM
Cc1cc(=O)oc2cc(OCCCCn3cc(CCCCN4C[C@H](O)[C@@H](O)[C@H](O)[C@H]4CO)nn3)ccc12 | 9.3 µM | 0.54 µM | 53.6 µM | 0.042 µM | 1.4 µM | 0.15 µM
CN(C)c1cccc2c(S(=O)(=O)NCCOCCn3cc(CCCCN4C[C@H](O)[C@@H](O)[C@H](O)[C@H]4CO)nn3)cccc12 | 97.8 µM | 1.9 µM | 414 µM | 0.091 µM | 4.6 µM | 0.91 µM
OC[C@H]1NC[C@H](O)[C@@H](O)[C@@H]1O [DUVOGLUSTAT] | 85 µM |  | 327 µM | 0.05 µM |  | 
OCCN1C[C@H](O)[C@@H](O)[C@H](O)[C@H]1CO [MIGLITOL] | 378 µM |  | 164 µM | 0.099 µM |  | 0.59 µM
